Converted amounts (≈) assume the structure as drawn. The source made the active and inactive calls. The calls are words filed in the database; no cut-off is given here.
Key:
Escherichia coli = assay: Antibacterial activity against Escherichia coli SG458 incubated overnight at 37 degC measured after 24 hrs by agar diffusion method; assay type: functional, organism-based
Bacillus spizizenii = assay: Antibacterial activity against Bacillus subtilis ATCC 6633 incubated overnight at 37 degC measured after 24 hrs by agar diffusion method; assay type: functional, organism-based
[1] = biological target: T1, Serine/threonine-protein kinase PknB (Mycobacterium tuberculosis) (UniProt P9WI81); assay: Induction of Mycobacterium tuberculosis GST-tagged PknB autophosphorylation expressed in Escherichia coli at 4.8 uM preincubated for 30 mins followed by [gamma32P]ATP addition measured after 30 mins by scintillation counting method relative to control
T1 sequence (whole entry): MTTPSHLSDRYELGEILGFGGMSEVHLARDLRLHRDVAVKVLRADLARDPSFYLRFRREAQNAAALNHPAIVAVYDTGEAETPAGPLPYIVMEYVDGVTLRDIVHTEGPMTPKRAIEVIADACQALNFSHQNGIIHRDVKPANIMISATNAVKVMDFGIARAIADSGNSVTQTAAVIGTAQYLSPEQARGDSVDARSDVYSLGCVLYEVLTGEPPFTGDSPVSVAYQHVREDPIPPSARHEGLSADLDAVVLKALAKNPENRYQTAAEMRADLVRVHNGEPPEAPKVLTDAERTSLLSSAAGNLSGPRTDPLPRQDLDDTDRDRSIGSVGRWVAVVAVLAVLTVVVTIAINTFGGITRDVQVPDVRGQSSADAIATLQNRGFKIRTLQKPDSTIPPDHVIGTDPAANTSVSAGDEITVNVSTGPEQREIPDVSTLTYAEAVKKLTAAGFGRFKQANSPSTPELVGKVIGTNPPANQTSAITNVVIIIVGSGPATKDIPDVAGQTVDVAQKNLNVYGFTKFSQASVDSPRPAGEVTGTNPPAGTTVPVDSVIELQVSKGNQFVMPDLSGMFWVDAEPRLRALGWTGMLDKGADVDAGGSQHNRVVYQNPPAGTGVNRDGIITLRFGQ

[2] = system: Sporobolomyces salmonicolor; assay: Antifungal activity against Sporobolomyces salmonicolor 549 incubated overnight at 30 degC measured after 24 hrs by agar diffusion method; assay type: functional, organism-based
[3] = biological target: T1, Serine/threonine-protein kinase PknB (Mycobacterium tuberculosis); assay: Inhibition of Mycobacterium tuberculosis GST-tagged PknB expressed in Escherichia coli assessed as reduction in PknB autophosphorylation at 0.24 to 4.8 uM preincubated for 30 mins followed by [gamma32P]ATP addition measured after 30 mins by scintillation counting method
[4] = system: Mycobacterium tuberculosis; assay: Antimycobacterial activity against Mycobacterium tuberculosis H37Rv ATCC 27294 by microplate alamar blue assay; assay type: functional
Mycolicibacterium aurum = assay: Antimycobacterial activity against Mycobacterium aurum SB66 incubated overnight at 37 degC measured after 24 hrs by agar diffusion method; assay type: functional
Mycolicibacterium vaccae = assay: Antimycobacterial activity against Mycobacterium vaccae IMET 10670 incubated overnight at 37 degC measured after 24 hrs by agar diffusion method; assay type: functional
[5] = Antiproliferative activity against HUVEC after 72 hrs by CellTiter-Blue1 assay; assay type: cell-based; details: human
[6] = Antiproliferative activity against human K562 cells after 72 hrs by CellTiter-Blue1 assay; assay type: cell-based
[7] = system: Mycolicibacterium smegmatis; assay: Antimycobacterial activity against Mycobacterium smegmatis SG987 after 48 hrs by resazurin microtiter assay; assay type: functional
[8] = Cytotoxicity against human HeLa cells assessed as reduction in cell viability after 72 hrs by CellTiter-Blue1 assay; assay type: cell-based
[9] = system: Mycobacterium tuberculosis; assay: Antimycobacterial activity against Mycobacterium tuberculosis H37Rv after 7 days by BacTiter-Glo microbial cell viability assay; assay type: functional
[10] = system: Mycolicibacterium smegmatis; assay: Antimycobacterial activity against Mycobacterium smegmatis SG987 incubated overnight at 37 degC measured after 24 hrs by agar diffusion method; assay type: functional
[11] = biological target: T1, Serine/threonine-protein kinase PknB (Mycobacterium tuberculosis); assay: Inhibition of Mycobacterium tuberculosis GST-tagged PknB expressed in Escherichia coli assessed as reduction in PknB autophosphorylation at 4.8 uM preincubated for 30 mins followed by [gamma32P]ATP addition measured after 30 mins by scintillation counting method relative to control
[12] = Mycobacterium tuberculosis, H37Rv, 168 h, read-out: MIC
[13] = Mycolicibacterium smegmatis, SG987, 48 h, read-out: MIC

SMILES: C[C@H]1OC(=O)CCC(Cc2ccccc2)NC(=O)[C@@H](NC(=O)OC(C)(C)C)[C@@H](C)OC1=O (stereo in doubt; form 2) [listing 1 of 2 here]
- Activity (Escherichia coli): inactive
- Activity (Bacillus spizizenii): inactive
- Activity [1]: 60%
- fold change (FC) [1]: 2
- Activity [2]: inactive
- inhibition [3]: inactive

SMILES: COC(=O)/C=C/C(=O)c1ccc(OC)cc1
- MIC [4]: 1.14 µM (≈ 0.251 µg/mL)

SMILES: C[C@@H](OCc1ccccc1)C(=O)O[C@H](C)[C@H](NC(=O)c1ncccc1F)C(=O)NCCCC(=O)OCc1ccccc1
- Activity (Escherichia coli): inactive
- Activity (Bacillus spizizenii): inactive
- Activity [2]: inactive

SMILES: C[C@H]1OC(=O)COC(=O)CCC(Cc2ccccc2)NC(=O)[C@H]1NC(=O)OC(C)(C)C (stereo in doubt; form 2) [listing 1 of 2 here]
- diameter of the inhibition zone (DIZ) (Mycolicibacterium aurum): 0 mm
- diameter of the inhibition zone (DIZ) (Mycolicibacterium vaccae): 24 - 31 mm
- GI50 at 72 h [5]: 5 to 50 µg/mL (≈ 11.5 to 115 µM)
- GI50 at 72 h [6]: 5 to 50 µg/mL (≈ 11.5 to 115 µM)
- MIC [7]: 7.2 µM (≈ 3.13 µg/mL)
- CC50 at 72 h [8]: 5 to 50 µg/mL (≈ 11.5 to 115 µM)
- MIC [9, 12]: 4 µM (≈ 1.74 µg/mL)
- diameter of the inhibition zone (DIZ) [10]: 21 mm

SMILES: C[C@H]1OC(=O)COC(=O)CCC(Cc2ccccc2)NC(=O)[C@H]1NC(=O)OC(C)(C)C (stereo in doubt; form 1) [listing 1 of 2 here]
- Activity (Escherichia coli): inactive
- Activity (Bacillus spizizenii): inactive
- Activity [2]: inactive
- inhibition [11]: 60%

SMILES: C[C@@H](OCc1ccccc1)C(=O)O[C@H](C)[C@H](NC(=O)c1ncccc1O)C(=O)NCCCC(=O)OCc1ccccc1
- Activity (Escherichia coli): inactive
- Activity (Bacillus spizizenii): inactive
- Activity [2]: inactive

SMILES: C[C@H]1OC(=O)CCCNC(=O)[C@@H](NC(=O)c2ccccn2)[C@@H](C)OC1=O
- Activity (Escherichia coli): inactive
- Activity (Bacillus spizizenii): inactive
- Activity [2]: inactive

SMILES: C[C@@H](OC(=O)COCc1ccccc1)[C@H](NC(=O)c1ncccc1O)C(=O)NCCCC(=O)OCc1ccccc1
- Activity (Escherichia coli): inactive
- Activity (Bacillus spizizenii): inactive
- Activity [2]: inactive

SMILES: C[C@H]1OC(=O)c2ccccc2OC(=O)CCNC(=O)[C@H]1NC(=O)OC(C)(C)C
- Activity (Escherichia coli): inactive
- Activity (Bacillus spizizenii): inactive
- Activity [2]: inactive

SMILES: C[C@@H](OC(=O)COCc1ccccc1)[C@H](NC(=O)c1ccccn1)C(=O)NCCCC(=O)OCc1ccccc1
- Activity (Escherichia coli): inactive
- Activity (Bacillus spizizenii): inactive
- Activity [2]: inactive

SMILES: C[C@@H](OC(=O)COCc1ccccc1)[C@H](NC(=O)c1ncccc1F)C(=O)NCCCC(=O)OCc1ccccc1
- Activity (Escherichia coli): inactive
- Activity (Bacillus spizizenii): inactive
- Activity [2]: inactive

SMILES: C[C@@H](OC(=O)COCc1ccccc1)[C@H](NC(=O)c1ccccc1O)C(=O)NCCCC(=O)OCc1ccccc1
- Activity (Escherichia coli): inactive
- Activity (Bacillus spizizenii): inactive
- Activity [2]: inactive

SMILES: C[C@H]1OC(=O)COC(=O)CCCNC(=O)[C@H]1NC(=O)c1ncccc1O
- Activity (Escherichia coli): inactive
- Activity (Bacillus spizizenii): inactive
- Activity [2]: inactive

SMILES: C[C@@H](OC(=O)CO)[C@H](NC(=O)OC(C)(C)C)C(=O)NC(CCC(=O)O)Cc1ccccc1 (stereo partly drawn)
- Activity [7]: inactive
- Activity [9]: inactive

SMILES: C[C@@H](O)C(=O)O[C@H](C)[C@H](NC(=O)OC(C)(C)C)C(=O)NC(CCC(=O)O)Cc1ccccc1 (stereo partly drawn)
- Activity [7]: inactive
- Activity [9]: inactive

SMILES: C[C@H]1OC(=O)c2ccccc2OC(=O)CCNC(=O)[C@H]1NC(=O)c1ncccc1O
- Activity [7]: inactive
- Activity (Escherichia coli): inactive
- Activity (Bacillus spizizenii): inactive
- Activity [9]: inactive
- Activity [2]: inactive

SMILES: C[C@H]1OC(=O)COC(=O)CCC(Cc2ccccc2)NC(=O)[C@H]1NC(=O)OC(C)(C)C (stereo in doubt; form 2) [listing 2 of 2 here]
- Activity (Escherichia coli): inactive
- Activity (Bacillus spizizenii): inactive
- Activity [2]: inactive
- inhibition [11]: 60%

SMILES: C[C@@H](OCc1ccccc1)C(=O)O[C@H](C)[C@H](NC(=O)c1ccccc1O)C(=O)NCCCC(=O)OCc1ccccc1
- Activity (Escherichia coli): inactive
- Activity (Bacillus spizizenii): inactive
- Activity [2]: inactive

SMILES: CC[C@H](C)[C@@H]1NC(=O)C[C@H](CC(C)C)CNC(=O)[C@@H](NC(=O)c2ccccn2)[C@@H](C)OC1=O
- Activity [7]: inactive
- Activity (Escherichia coli): inactive
- Activity (Bacillus spizizenii): inactive
- Activity [9]: inactive
- Activity [2]: inactive

SMILES: C[C@@H](OCc1ccccc1)C(=O)O[C@H](C)[C@H](NC(=O)c1ccccn1)C(=O)NCCCC(=O)OCc1ccccc1
- Activity (Escherichia coli): inactive
- Activity (Bacillus spizizenii): inactive
- Activity [2]: inactive

SMILES: COC(=O)CCC(Cc1ccccc1)NC(=O)[C@@H](NC(=O)OC(C)(C)C)[C@@H](C)OC(=O)[C@@H](C)O (stereo partly drawn)
- Activity (Mycolicibacterium vaccae): inactive
- Activity (Escherichia coli): inactive
- Activity (Bacillus spizizenii): inactive
- Activity [2]: inactive
- inhibition [3]: inactive
- Activity [10]: inactive

SMILES: C[C@H]1OC(=O)CCC(Cc2ccccc2)NC(=O)[C@@H](NC(=O)OC(C)(C)C)[C@@H](C)OC1=O (stereo in doubt; form 2) [listing 2 of 2 here]
- diameter of the inhibition zone (DIZ) (Mycolicibacterium aurum): 0 mm
- diameter of the inhibition zone (DIZ) (Mycolicibacterium vaccae): 0 mm
- MIC [9, 12]: 125 µM (≈ 56.1 µg/mL)
- diameter of the inhibition zone (DIZ) [10]: 0 mm

SMILES: C[C@H]1OC(=O)CCCNC(=O)[C@@H](NC(=O)c2ncccc2O)[C@@H](C)OC1=O
- Activity (Escherichia coli): inactive
- Activity (Bacillus spizizenii): inactive
- Activity [2]: inactive

SMILES: C[C@H]1OC(=O)COC(=O)CCC(Cc2ccccc2)NC(=O)[C@H]1NC(=O)OC(C)(C)C (stereo in doubt; form 1) [listing 2 of 2 here]
- diameter of the inhibition zone (DIZ) (Mycolicibacterium vaccae): 20 - 26 mm
- MIC [7]: 28.8 µM (≈ 12.5 µg/mL)
- MIC [9]: 8 µM (≈ 3.48 µg/mL)
- diameter of the inhibition zone (DIZ) [10]: 17 mm

SMILES: C[C@H]1OC(=O)COC(=O)CCCNC(=O)[C@H]1NC(=O)c1ccccn1
- Activity (Escherichia coli): inactive
- Activity (Bacillus spizizenii): inactive
- Activity [2]: inactive

SMILES: C[C@H]1OC(=O)CCC(Cc2ccccc2)NC(=O)[C@@H](NC(=O)OC(C)(C)C)[C@@H](C)OC1=O (stereo in doubt; form 1)
- Activity (Escherichia coli): inactive
- Activity (Bacillus spizizenii): inactive
- Activity [2]: inactive

SMILES: C[C@H]1OC(=O)CCC(Cc2ccccc2)NC(=O)[C@@H](NC(=O)c2ncccc2O)[C@@H](C)OC1=O (stereo partly drawn)
- diameter of the inhibition zone (DIZ) (Mycolicibacterium aurum): 0 mm
- diameter of the inhibition zone (DIZ) (Mycolicibacterium vaccae): 21 - 29 mm
- GI50 at 72 h [5]: > 5 µg/mL
- GI50 at 72 h [6]: > 5 µg/mL
- MIC [7, 13]: 13.7 µM (≈ 6.43 µg/mL)
- Activity (Escherichia coli): inactive
- Activity (Bacillus spizizenii): inactive
- CC50 at 72 h [8]: > 5 µg/mL
- MIC [9, 12]: 8 µM (≈ 3.76 µg/mL)
- Activity [2]: inactive
- inhibition [11]: 35%
- diameter of the inhibition zone (DIZ) [10]: 17 mm

SMILES: NNC(=O)c1ccncc1 [ISONIAZID]
- MIC [7, 13]: 29.2 µM (≈ 4 µg/mL)
- MIC [9, 12]: 0.31 µM (≈ 0.0425 µg/mL)

SMILES: CC/C(C)=C1\OC(=O)[C@H](C)[C@@H](O)[C@H](Cc2cccnc2)NC(=O)[C@@H](NC(=O)c2ncccc2O)[C@@H](C)OC1=O
- inhibition [3]: inactive

— ChEMBL document CHEMBL4219252, “Synthesis, antimycobacterial activity and influence on mycobacterial InhA and PknB of 12-membered cyclodepsipeptides” (Bioorg Med Chem, 2018)
